Results from patent US20090163474A1, “FXR Agonists for the Treatment of Nonalcoholic Fatty Liver and Cholesterol Gallstone Diseases” (Wyeth, priority 2007, published 2009).

Key:
[1] = test system: C57BL/6 mice fed a Paigen diet; test: Paigen diet fed mice: serum, liver gene expression and liver histology; assay type: in vivo; settings: 30 mg/kg orally once a day for 4 weeks
Experimental: Male C57BL/6 mice were fed a standard chow diet or a Paigen diet (TestDiet 32350 containing 7.5% Cocoa Butter, 1.25% cholesterol, and 0.5% cholic acid). Paigen diet fed mice were administered vehicle or 30 mg/kg FXR agonist, Compound A (isopropyl 3-(3,4-difluorobenzoyl)-1,1-dimethyl-1,2,3,6-tetrahydroazepino[4,5-b]indole-5-carboxylate) orally once a day for 4 weeks. Three hours after the final treatment, mice were euthanized and blood and liver were collected for analyses.
Real-time RT PCR analysis of liver RNA was performed. FIGS. 3A, 3B, and 3C show the expression levels of vascular cell adhesion molecule 1 (VCAM-1), intercellular adhesion molecule-1 (ICAM-1), and tumor necrosis factor α (TNFα). Expression levels were normalized to GAPDH, and the mean level of expression of each gene in mice fed a standard chow diet was defined as 1.0. 6 mice were tested in each group. Data are presented as the mean±SE.
Male C57BL/6 mice were fed a chow diet or a Paigen diet. Paigen fed mice were administered vehicle or 30 mg/kg Compound A orally once a day for 4 weeks. Three hours after the final treatment, mice were euthanized, and histological analysis of livers was performed. Frozen liver sections (5 μm) were prepared and stained with Oil Red O, hematoxylin and eosin (H&E), and Masson's trichrome (Trichrome).
Male C57BL/6 mice were fed a chow diet or a Paigen diet. Paigen fed mice were administered vehicle or 30 mg/kg Compound A orally once a day for 4 weeks. Three hours after the final treatment, mice were euthanized, and real-time RT PCR analysis of liver RNA was performed.

mice fed a Paigen diet = test: Gallstone formation in Paigen diet fed mice; assay type: in vivo; settings: 30 mg/kg orally once a day for 4 weeks
Experimental: To study gallstone formation, gallbladders were harvested from mice fed a Paigen diet and administered vehicle or 30 mg/kg Compound A orally once a day for 4 weeks.

[2] = test system: C57BL/6 mice with preformed gallstones; test: Gallstone dissolution in mice with preformed gallstones; assay type: in vivo; settings: Paigen diet 4 weeks, then 30 mg/kg orally once a day on chow diet for 4 weeks
Experimental: To study gallstone dissolution, gallbladders were harvested from mice treated as follows. C57BL/6 mice were fed a Paigen diet for 4 weeks to initiate gallstone formation. Subsequently these mice were administered vehicle or 30 mg/kg Compound A orally once a day and fed a standard chow diet for 4 weeks to study the effect of Compound A on preformed gallstones.

[3] = test system: C57BL/6 mice fed a methionine/choline deficient (MCD) diet; test: MCD diet fed mice: serum, liver gene expression and liver histology; assay type: in vivo
Experimental: Male C57BL/6 mice were fed a standard chow diet or a methionine/choline deficient (MCD) diet (MCD diet; TD 90262, Harlan Teklad). MCD diet fed mice develop fibrosis and NAFLD including steatosis and NASH due to impaired mitochondrial β-oxidation and reduced hepatic triglyceride secretion.
Mice were administered vehicle or 30 mg/kg Compound A orally once a day for 4 weeks. Three hours after the final treatment, mice were euthanized, and blood and liver were collected for analyses.
FIGS. 11A and 11B show the expression levels of VCAM-1 and MCP-1, respectively. Real-time RT PCR analysis of liver RNA was performed. Expression levels were normalized to GAPDH, and the mean level of expression of each gene in vehicle treated mice fed a standard chow diet was defined as 1.0. 7 mice were tested in each group. Data are presented as the mean±SE.
FIGS. 13, 14, and 15 show representative liver sections from mice fed a standard chow diet, vehicle treated mice fed a MCD diet, and Compound A (30 mg/kg orally once a day) treated mice fed a MCD diet for 4 weeks.
Male C57BL/6 mice were fed a standard chow diet or a MCD diet and treated with either vehicle or 30 mg/kg Compound A orally once a day for 4 weeks. Three hours after the final treatment, mice were euthanized and liver expression of CYP2E1, a reactive oxygen species (ROS) generating microsomal enzyme, was analyzed.

Hep3B cells = test: FXR siRNA studies in Hep3B cells; assay type: cell-based, Human; settings: Compound A 1 μM, 50 ng/ml IL-6
Experimental: FXR siRNA studies were performed in Hep3B cells. […] The cells were transfected with FXR siRNA or control siRNA, stimulated with 50 ng/ml IL-6, and treated with control (DMSO) or Compound A (1 μM). CRP concentrations in the conditional media were measured by ELISA. (*P<0.01, Control siRNA/DMSO vs. Control siRNA/Compound A).
The Hep3B cells were transfected with FXR siRNA or control siRNA, stimulated with 50 ng/ml IL-6, and treated with control (DMSO) or Compound A (1 μM). […] (*P<0.001, Control siRNA vs. FXR siRNA).

[4] = RT PCR, normalized to GAPDH, p<0.0001
[5] = 30 mg/kg orally once a day for 4 weeks, MCD diet
[6] = 30 mg/kg orally once a day for 4 weeks, MCD diet, RT PCR, p<0.001
[7] = 30 mg/kg orally once a day for 4 weeks, p<0.001
[8] = 30 mg/kg orally once a day, MCD diet for 4 weeks

## CC(C)OC(=O)C1=CN(C(=O)c2ccc(F)c(F)c2)CC(C)(C)c2c1[nH]c1ccccc21 [Compound A, isopropyl 3-(3,4-difluorobenzoyl)-1,1-dimethyl-1,2,3,6-tetrahydroazepino[4,5-b]indole-5-carboxylate]
[1]
  Paigen diet induced liver damage (histological analyses): attenuated Paigen diet induced liver damage
  intracellular vacuoles characteristic of lipid droplets in liver (H&E and Trichrome): reduced the number and severity of the vacuoles
[1]; Paigen diet
  liver BSEP expression level, increase: 2.41 fold
  liver MDR2 expression level, increase: 1.4 fold
  liver SHP expression level, increase: 4.85 fold
[1]; [4]
  liver ICAM-1 expression level (Paigen diet induction): significantly inhibited
  liver TNFα expression level (Paigen diet induction): significantly inhibited
  liver VCAM-1 expression level (Paigen diet induction): significantly inhibited
[1]; histology
  inflammatory cholangitis with portal inflammation in liver: significantly more severe in the livers of vehicle treated compared to Compound A treated mice
[1]; mean±SE, vehicle 292.1±33.6 U/L, p<0.0001
  serum alanine aminotransferase (ALT) activity level: 98.1±22.5 U/L
[1]; p<0.0001
  serum level of MCP-1 vs vehicle: significantly reduced
[1]; vs vehicle
  neutral lipid accumulation in the liver (Oil Red O staining): reduction in neutral lipid accumulation
[1]; vs vehicle treated Paigen diet mice, p<0.0001
  liver FAS expression, further induction: 2.4 fold
Mice fed a Paigen diet
  cholesterol gallstones in gallbladders (gross morphology): clearly visible in the gallbladders of vehicle but not Compound A treated mice
Mice fed a Paigen diet; vehicle 14/19
  Gallstone formation (incidence, mice with gallstones/mice): 0/20
Mice fed a Paigen diet; vehicle 73.7%
  incidence of gallstone formation: 0%
[2]; vehicle 13/26
  Gallstone dissolution (gallstone incidence, mice with gallstones/mice): 5/20
[2]; vehicle 50%
  gallstone incidence in mice with preformed gallstones: 25%
[3]; [5]
  liver FXR gene expression level: did not normalize
  liver FXR target gene expression (SHP, BSEP): normalized
[3]; [6]
  liver MCP-1 expression: significantly inhibited
  liver VCAM-1 expression: significantly inhibited
[3]; 30 mg/kg orally once a day for 4 weeks, MCD diet, mean±SE, vehicle 491±38.9 U/L, p<0.0001
  serum aspartate aminotransferase (AST) activity level: 268±77 U/L
[3]; 30 mg/kg orally once a day for 4 weeks, MCD diet, p<0.05
  serum mKC level vs vehicle: reduced
[3]; 30 mg/kg orally once a day for 4 weeks, chow or MCD diet (independent of MCD diet), p<0.001
  liver CYP2E1 expression levels: significant inhibition
[3]; [7]
  liver MMP-9 expression level (MCD diet induction): inhibition of MCD diet induction
  liver MMP-14 expression level (MCD diet induction): inhibition of MCD diet induction
  liver TIMP-1 expression level (MCD diet induction): inhibition of MCD diet induction
[3]; [8]
  inflammatory cell infiltration and fibrosis in liver (Trichrome staining): more severe in the livers of vehicle treated compared to Compound A treated mice
  inflammatory cell infiltration and portal inflammation in liver (H&E staining): more severe in the livers of vehicle treated compared to Compound A treated mice
  liver function, inflammation and fibrosis (histological analyses of liver sections): preserved liver function, and reduced liver inflammation and fibrosis
  neutral lipid accumulation in the liver (Oil Red O staining): no effect
Hep3B cells
  CRP inhibition at the mRNA level in cells transfected with FXR siRNA: suppressed
Hep3B cells; ELISA
  inhibitory effect on CRP secretion in cells transfected with FXR siRNA: FXR siRNA blocked Compound A's inhibitory effect
